Reference: patent EP3227262B1, “SULFIDE ALKYL AND PYRIDYL REVERSE SULFONAMIDE COMPOUNDS FOR HBV TREATMENT” (Novira Therapeutics Inc., priority 2014, dated 2016)

System: HBV
Test: Inhibition of HBV replication dot-blot assay in HBV-producing hepatoma cell line
Type: cell-based
Details: Hepatitis B virus, 144 h; activity in Dot-Blot assay; HepG2-2.2.15 cells; reduction in HBV DNA levels, six days
Procedure: Compounds active in the HBV assembly assay are tested for their activity and toxicity in cellular assay. In the first anti-viral assay, the ability of compounds to inhibit HBV replication in an HBV-producing hepatoma cell line using the dot-blot method is evaluated.
(§1) Briefly, confluent monolayers of HepG2-2.2.15 cells are incubated with complete medium containing various concentrations of a test compound. Three days later, the culture medium is replaced with fresh medium containing the appropriately diluted test compound. Six days following the initial administration of the test compound, the cell culture supernatant is collected, and cell lysis is performed. The samples are applied onto Nylos membranes and DNA is immobilized to the membrane by UV cross-linking. After pre-hybridization, the HBV probe is added and the hybridization is performed overnight. The membranes are exposed to the KODAK films; antiviral activity is calculated from the reduction in HBV DNA levels (EC50). The EC50 for antiviral activity is calculated from the dose response curves of active compounds. Assay performance over time is monitored by the use of the standard positive control compounds ETV, BAY 41-4109, and HAP-1.
Selected compounds are tested for their activity and toxicity in cellular assay. In the first anti-viral assay, the ability of compounds to inhibit HBV replication in an HBV-producing hepatoma cell line using the dot-blot method is evaluated.
as §1, with “Confluent monolayers” for “Briefly, confluent monolayers”, “lysis was” for “lysis is”

O=C(Nc1ccc(F)c(Cl)c1)c1cccc(SC2CCC(O)CC2)c1 (mixture of isomers) [Compound 34, (cis/trans)-N-(3-Chloro-4-fluorophenyl)-3-((4-hydroxycyclohexyl)thio)benzamide]
EC50: < 10 µM

O=C(Nc1ccc(F)c(Cl)c1)c1ccc(F)c(SC2CC(C(=O)O)C2)c1 (mixture of isomers) [Compound 58, (cis/trans)-3-((5-((3-Chloro-4-fluorophenyl)carbamoyl)-2-fluorophenyl)thio)cyclobutanecarboxylic acid]
EC50: < 10 µM

O=C(Nc1ccc(F)c(F)c1)c1ccc(F)c(SC2CC(C(=O)O)C2)c1 (mixture of isomers) [Compound 59, (cis/trans)-3-((5-((3,4-Difluorophenyl)carbamoyl)-2-fluorophenyl)thio)cyclobutanecarboxylic acid]
EC50: < 10 µM

O=C(Nc1ccc(F)c(Cl)c1)c1ccc(F)c(SC2CCC(C(=O)O)CC2)c1 (mixture of isomers) [Compound 61, (cis/trans)-4-((5-((3-Chloro-4-fluorophenyl)carbamoyl)-2-fluorophenyl)thio)cyclohexanecarboxylic acid]
EC50: < 10 µM

COc1ccc(C(=O)Nc2ccc(F)c(Cl)c2)cc1SC1CCC(O)CC1 (mixture of isomers) [Compound 70, (cis/trans)-N-(3-Chloro-4-fluorophenyl)-3-((4-hydroxycyclohexyl)thio)-4-methoxybenzamide]
EC50: < 10 µM

O=C(Nc1ccc(F)c(Cl)c1)c1ccc(Cl)c(SC2CCC(O)CC2)c1 (mixture of isomers) [Compound 75, (cis/trans)-4-Chloro-N-(3-chloro-4-fluorophenyl)-3-((4-hydroxycyclohexyl)thio)benzamide]
EC50: < 10 µM

Cc1ccc(C(=O)Nc2cc(F)c(F)c(F)c2)cc1SC1CCC(O)CC1 (mixture of isomers) [Compound 77, (cis/trans)-3-((4-Hydroxycyclohexyl)thio)-4-methyl-N-(3,4,5-trifluorophenyl)benzamide]
EC50: < 10 µM

O=C(Nc1cc(F)c(F)c(F)c1)c1ccc(Cl)c(SC2CCC(O)CC2)c1 (mixture of isomers) [Compound 81, (cis/trans)-4-Chloro-3-((4-hydroxycyclohexyl)thio)-N-(3,4,5-trifluorophenyl)benzamide]
EC50: < 10 µM

COc1ccc(C(=O)Nc2cc(F)c(F)c(F)c2)cc1SC1CCC(O)CC1 (mixture of isomers) [Compound 84, (cis/trans)-3-((4-Hydroxycyclohexyl)thio)-4-methoxy-N-(3,4,5-trifluorophenyl)benzamide]
EC50: < 10 µM

O=C(Nc1ccc(F)c(F)c1)c1ccc(Cl)c(SC2CCC(O)CC2)c1 (mixture of isomers) [Compound 87, (cis/trans)-4-Chloro-N-(3,4-difluorophenyl)-3-((4-hydroxycyclohexyl)thio)benzamide]
EC50: < 10 µM

COc1ccc(C(=O)Nc2ccc(F)c(F)c2)cc1SC1CCC(O)CC1 (mixture of isomers) [Compound 89, (cis/trans)-N-(3,4-Difluorophenyl)-3-((4-hydroxycyclohexyl)thio)-4-methoxybenzamide]
EC50: < 10 µM

N#Cc1ccc(C(=O)Nc2ccc(F)c(F)c2)cc1SC1CCC(O)CC1 (mixture of isomers) [Compound 93, (cis/trans)-4-Cyano-N-(3,4-difluorophenyl)-3-((4-hydroxycyclohexyl)thio)benzamide]
EC50: < 10 µM

N#Cc1ccc(C(=O)Nc2ccc(F)c(Cl)c2)cc1SC1CCC(O)CC1 (mixture of isomers) [Compound 95, (cis/trans)-N-(3-Chloro-4-fluorophenyl)-4-cyano-3-((4-hydroxycyclohexyl)thio)benzamide]
EC50: < 10 µM

CN(C)C(=O)C1CCC(Sc2cc(C(=O)Nc3cc(F)c(F)c(F)c3)ccc2F)CC1 (mixture of isomers) [Compound 103, (cis/trans)-3-((4-(Dimethylcarbamoyl)cyclohexyl)thio)-4-fluoro-N-(3,4,5-trifluorophenyl)benzamide]
EC50: < 10 µM

O=C(Nc1cc(F)c(F)c(F)c1)c1ccc(F)c(SC2CCC(C(=O)N3CCCCC3)CC2)c1 (mixture of isomers) [Compound 104, (cis/trans)-4-Fluoro-3-((4-(piperidine-1-carbonyl)cyclohexyl)thio)-N-(3,4,5-trifluorophenyl)benzamide]
EC50: < 10 µM

O=C(O)CC1CCC(Sc2cc(C(=O)Nc3ccc(F)c(Cl)c3)ccc2F)CC1 (mixture of isomers) [Compound 106, (cis/trans)-2-(4-((5-((3-Chloro-4-fluorophenyl)carbamoyl)-2-fluorophenyl)thio)cyclohexyl)acetic acid]
EC50: < 10 µM

O=C(O)CC1CCC(Sc2cc(C(=O)Nc3cc(F)c(F)c(F)c3)ccc2F)CC1 (mixture of isomers) [Compound 107, (cis/trans)-2-(4-((5-((3,4,5-trifluorophenyl)carbamoyl)-2-fluorophenyl)thio)cyclohexyl)acetic acid]
EC50: < 10 µM

O=C(Nc1cc(F)c(F)c(F)c1)c1ccc(F)c(SC2CCC(C(=O)N3CCNCC3)CC2)c1 (mixture of isomers) [Compound 108, (cis/trans)-4-Fluoro-3-((4-(piperazine-1-carbonyl)cyclohexyl)thio)-N-(3,4,5-trifluorophenyl)benzamide]
EC50: < 10 µM

O=C(Nc1ccc(F)c(Cl)c1)c1ccc(F)c(SCC2CCC(C(=O)O)CC2)c1 (mixture of isomers) [Compound 109, (cis/trans)-4-(((5-((3-Chloro-4-fluorophenyl)carbamoyl)-2-fluorophenyl)thio)methyl)cyclohexanecarboxylic acid]
EC50: < 10 µM

O=C(Nc1cc(F)c(F)c(F)c1)c1ccc(F)c(SCC2CCC(C(=O)O)CC2)c1 (mixture of isomers) [Compound 110, (cis/trans)-4-(((5-((3,4,5-trifluorophenyl)carbamoyl)-2-fluorophenyl)thio)methyl)cyclohexanecarboxylic acid]
EC50: < 10 µM

O=C1CCCCC(Sc2cc(C(=O)Nc3cc(F)c(F)c(F)c3)ccc2F)C1 (racemic) [Compound 12, (±)-4-Fluoro-3-((3-oxocydoheptyl)thio)-N-(3,4,5-trifluorophenyl)benzamide]
EC50: < 10 µM

O=C1CCCCC(Sc2cc(C(=O)Nc3ccc(F)c(Cl)c3)ccc2F)C1 (racemic) [Compound 13, (±)-N-(3-Chloro-4-fluorophenyl)-4-fluoro-3-((3-oxocycloheptyl)thio)benzamide]
EC50: < 10 µM

O=C(Nc1cc(F)c(F)c(F)c1)c1ccc(F)c(S[C@H]2CCCC[C@@H](O)C2)c1 (racemic) [Compound 14A, (±)-4-Fluoro-3-(((1S,3R)-3-hydroxycycloheptyl)thio)-N-(3,4,5-trifluorophenyl)benzamide]
EC50: < 10 µM

O=C(Nc1cc(F)c(F)c(F)c1)c1ccc(F)c(S[C@@H]2CCCC[C@@H](O)C2)c1 (racemic) [Compound 14B, (±)-4-Fluoro-3-(((1R,3R)-3-hydroxycycloheptyl)thio)-N-(3,4,5-trifluorophenyl)benzamide]
EC50: < 10 µM

O=C(Nc1cc(F)c(F)c(F)c1)c1ccc(F)c(SC2CCCCC(F)C2)c1 (racemic) [Compound 15, (±)-4-Fluoro-3-((3-fluorocycloheptyl)thio)-N-(3,4,5-trifluorophenyl)benzamide]
EC50: < 10 µM

O=C1CCCC(Sc2cc(C(=O)Nc3ccc(F)c(Cl)c3)ccc2F)C1 (racemic) [Compound 20, (±)N-(3-Chloro-4-fluorophenyl)-4-fluoro-3-((3-oxocyclohexyl)thio)benzamide]
EC50: < 10 µM

O=C(Nc1ccc(F)c(Cl)c1)c1ccc(F)c(S[C@@H]2CCC[C@@H](O)C2)c1 (racemic) [Compound 21, (±)-N-(3-Chloro-4-fluorophenyl)-4-fluoro-3-(((1R,3R)-3-hydroxycyclohexyl)thio)benzamide]
EC50: < 10 µM

O=C1CCC(Sc2cc(C(=O)Nc3ccc(F)c(Cl)c3)ccc2F)C1 (racemic) [Compound 22, (±)-N-(3-Chloro-4-fluorophenyl)-4-fluoro-3-((3-oxocyclopentyl)thio)benzamide]
EC50: < 10 µM

O=C(Nc1ccc(F)c(Cl)c1)c1ccc(F)c(S[C@H]2CC[C@H](O)C2)c1 (racemic) [Compound 25, (±)-N-(3-Chloro-4-fluorophenyl)-4-fluoro-3-(((1S,3S)-3-hydroxycyclopentyl)thio)benzamide]
EC50: < 10 µM

O=C(Nc1ccc(F)c(Cl)c1)c1ccc(F)c(SCC2CCOC2)c1 (racemic) [Compound 46, (±)-N-(3-Chloro-4-fluorophenyl)-4-fluoro-3-(((tetrahydrofuran-3-yl)methyl)thio)benzamide]
EC50: < 10 µM

O=C(Nc1ccc(F)c(Cl)c1)c1ccc(F)c(SC2CCCOC2)c1 (racemic) [Compound 64, (±)-N-(3-Chloro-4-fluorophenyl)-4-fluoro-3-((tetrahydro-2H-pyran-3-yl)thio)benzamide]
EC50: < 10 µM
